Data from patent publication US4916122A, “3'-Azido-2',3'-dideoxyuridine anti-retroviral composition” (University of Georgia Research Foundation, Inc., priority 1987, dated 1990).
pEC50, pKi: −log10 of the molar value. Values after ≈ are worked out from the molar mass of the structure shown. Values joined by “and” are separate entries in the source; they are usually repeats but may differ in a detail not shown here. Equal entries are not always repeated. Where two headings read alike, the source gives them in different places.

Experiments:
[1] = target: T1, HIV RT (Human immunodeficiency virus type 1 group M subtype B, UniProt P03367); assay: Effect of 5'-triphosphates on HIV reverse transcriptase (Table 6); assay type: biochemical; details: 5'-triphosphate; read-out: HIV RT K1
T1 construct: HIV reverse transcriptase

[2] = target: T2, Host cell α-DNA pol (Homo sapiens, UniProt P09884); assay: Effect of 5'-triphosphates on alpha DNA polymerase (Table 6); assay type: biochemical
T2 sequence (P09884 1-1462): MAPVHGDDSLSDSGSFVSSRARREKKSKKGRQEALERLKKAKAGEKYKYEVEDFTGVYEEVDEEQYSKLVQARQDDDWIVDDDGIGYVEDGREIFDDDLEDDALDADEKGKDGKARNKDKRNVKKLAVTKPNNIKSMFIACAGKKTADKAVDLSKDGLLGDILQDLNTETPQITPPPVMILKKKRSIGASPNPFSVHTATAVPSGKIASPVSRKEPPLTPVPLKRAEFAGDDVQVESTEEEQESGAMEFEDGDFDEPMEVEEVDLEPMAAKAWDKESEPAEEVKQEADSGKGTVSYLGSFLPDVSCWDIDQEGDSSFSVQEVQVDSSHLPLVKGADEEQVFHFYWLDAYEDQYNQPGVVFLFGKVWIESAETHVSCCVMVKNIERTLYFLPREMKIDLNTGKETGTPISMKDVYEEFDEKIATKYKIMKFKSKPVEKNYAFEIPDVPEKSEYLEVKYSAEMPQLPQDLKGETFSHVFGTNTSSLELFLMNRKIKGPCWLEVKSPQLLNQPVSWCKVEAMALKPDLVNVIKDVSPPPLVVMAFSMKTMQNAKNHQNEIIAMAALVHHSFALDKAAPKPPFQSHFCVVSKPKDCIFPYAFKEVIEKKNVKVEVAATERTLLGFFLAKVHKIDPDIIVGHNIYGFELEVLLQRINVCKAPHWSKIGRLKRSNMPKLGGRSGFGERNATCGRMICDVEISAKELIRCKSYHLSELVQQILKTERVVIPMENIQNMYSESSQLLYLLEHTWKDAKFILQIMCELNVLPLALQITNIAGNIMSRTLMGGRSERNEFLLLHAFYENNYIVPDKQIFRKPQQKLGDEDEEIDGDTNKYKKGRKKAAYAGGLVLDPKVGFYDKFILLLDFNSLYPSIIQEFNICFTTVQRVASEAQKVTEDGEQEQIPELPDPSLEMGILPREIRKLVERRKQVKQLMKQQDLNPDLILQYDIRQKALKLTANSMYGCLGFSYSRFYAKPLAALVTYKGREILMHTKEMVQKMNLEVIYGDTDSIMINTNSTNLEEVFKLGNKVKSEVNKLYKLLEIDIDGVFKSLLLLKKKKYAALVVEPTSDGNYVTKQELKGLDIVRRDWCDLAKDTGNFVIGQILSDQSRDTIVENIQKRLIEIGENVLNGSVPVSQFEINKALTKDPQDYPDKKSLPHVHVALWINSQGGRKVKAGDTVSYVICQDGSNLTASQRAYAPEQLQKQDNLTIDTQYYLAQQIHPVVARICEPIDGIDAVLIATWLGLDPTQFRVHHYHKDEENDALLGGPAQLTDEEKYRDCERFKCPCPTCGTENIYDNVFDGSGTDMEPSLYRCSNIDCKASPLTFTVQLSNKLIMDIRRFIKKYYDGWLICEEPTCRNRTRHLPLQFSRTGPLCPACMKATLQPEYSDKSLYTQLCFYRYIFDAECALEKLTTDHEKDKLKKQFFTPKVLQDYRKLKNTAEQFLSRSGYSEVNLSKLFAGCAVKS

[3] = tested on: SIV (SMM); assay: Median effective antiviral concentration against SIV (Table 5); assay type: cell-based, simian immunodeficiency virus; details: Simian immunodeficiency virus
Excerpt: (§1) A comparison of the differences in median effective an tiviral concentrations between human, non-human primate, and murine retroviruses is shown in Table 5. […] A further comparison of the activity of several nucleoside analogues, including CS-87, against HIV-1 and SIV in human PBM cells is shown in FIG. 6. The effect of delayed treatment with AZT, CS-87 or CS-91 on the replication of HIV-1 and SIV in human PBM cells is shown in FIGS. 7a, b, and c.

[4] = tested on: HIV (LAV-1); assay: Median effective antiviral concentration against HIV (Table 5); assay type: cell-based; details: Human immunodeficiency virus 1
[5] = tested on: Mouse ecotropic (Cas-Br-M); assay: Median effective antiviral concentration against mouse ecotropic virus (Table 5); assay type: cell-based, murine retrovirus; details: unidentified retrovirus
Excerpt: as §1

[6] = tested on: HIV-1 and SIV; assay: Effect of delayed treatment on replication of HIV-1 and SIV in human PBM cells (FIG. 7); assay type: cell-based, HIV-1; SIV
Excerpt: as §1

[7] = Effect on weight of uninfected BALB/c mice (FIG. 3); assay type: in vivo, mouse; details: compared with each other and control
[8] = tested on: HIV-1 (Strain HTLV-III); assay: Antiviral activity against HIV-1 in ATH-8 cells (Table 4); details: Human immunodeficiency virus 1, 240 h, read-out: ATH-8 (MIC)
[9] = tested on: HIV-1 (strain LAV); assay: Inhibition of HIV replication in human PBM cells, reverse transcriptase assay (Table 3)
[10] = tested on: HIV-1 p24; assay: Inhibition of HIV replication in human PBM cells, p24 RIA (Table 3)
[11] = tested on: NIH Swiss mice; details: oral 0.5 mg/ml ad libitum, 67 days
[12] = tested on: HIV-1 (Strain RF-II); assay: Antiviral activity against HIV-1 in HeLa-T4 cells (Table 4); assay type: cell-based; details: Human immunodeficiency virus 1, HeLaT4, HIV-1
Description: Evaluation in Hela-T4 cells infected with HIV-1 (Strain RF-II)
HeLa-T4 cells (described in Cell 47: 333, 1986) are maintained in Dulbecco's Modified Eagle medium containing 10% inactivated fetal calf serum, penicillin (100 U/ml) and streptomycin (100 μg/ml), and the antibiotic G418 (1 mg/ml). The cells are seeded onto a 96-well plate (2×10^4 cells/well per 0.1 ml), and two days later, the supernatant is removed and the virus added. After adsorption for 45 minutes, the inoculum is removed and the cells washed with phosphate-buffered saline (pH 7.2). The compounds at different concentration are then added in maintenance medium (containing 2% serum). […] The cells are fixed with a mixture of 5% glacial acetic acid/95% Ethanol for 15 minutes, and then stained with Giemsa (20% in PSB) for 4 hours. The plates are then washed and dried. The foci are then enumerated with a dissecting stereomicroscope.

[13] = tested on: HIV p24 and p41; assay: Inhibition of HIV replication in human PBM cells, western blot analysis (Table 3)
[14] = tested on: Friend Leukemia virus; details: Ostertag et al.; Krieg et al.; cited from earlier work
[15] = tested on: HIV-1; assay: microbe, parasite or virus in culture; details: Human immunodeficiency virus 1, PBMC, read-out: PBM (EC50)
[16] = tested on: uninfected cells; details: CS-87 compared with AZT
[17] = tested on: HIV; details: in vitro
[18] = preliminary results, Yarchoan et al. 1986; cited from earlier work
[19] = tested on: Friend (EY-10); assay: Median effective antiviral concentration against Friend virus (Table 5); assay type: cell-based, murine retrovirus; details: unidentified retrovirus, in Mus musculus
Excerpt: as §1

[20] = tested on: sarcoma 180 cells; details: in vitro; Lin et al.; cited from earlier work
[21] = tested on: two particular enzymes isolated from L1210 cells; details: Lin et al.; cited from earlier work
[22] = tested on: L1210 cells; details: in vitro; Lin et al.; Lin and Mancini; cited from earlier work
[23] = Human immunodeficiency virus 1, PBMC, in Homo sapiens, read-out: RT % Inhibition (corrected)
[24] = Human immunodeficiency virus 1, PBMC, in Homo sapiens, read-out: RIA p24 % Inhibition
[25] = individual mouse, listed as AzT
[26] = individual mouse, listed as Azt

[N-]=[N+]=N[C@H]1C[C@H](n2ccc(=O)[nH]c2=O)O[C@@H]1COP(=O)(O)OP(=O)(O)OP(=O)(O)O [CS-87-TP, 3'-azido-2',3'-dideoxyuridine triphosphate]
pKi [1]: 8.05 | pKi ([2]; 5'-triphosphate, read-out: Host cell α-DNA pol K1): 2.92 | Ratio: Cellular/HIV ([2]; K1 host cell α-DNA pol / K1 HIV RT): 133,333

[N-]=[N+]=N[C@H]1C[C@H](n2ccc(N)nc2=O)O[C@@H]1CO [CS-91, 3' azido 2',3'-dideoxycytidine]
pEC50 [3]: 5.94 | pEC50 [4]: 6.41 | pEC50 [5]: 4.11 | effect of delayed treatment on replication of HIV-1 and SIV [6]: time of administration is critical to the effectiveness of the treatment

CCc1cn([C@H]2C[C@H](N=[N+]=[N-])[C@@H](CO)O2)c(=O)[nH]c1=O [CS-85, 3'-azido-2',3'-dideoxy-5-ethyl-uridine, reference compound]
effect on weight of uninfected BALB/c mice [7]: no significant difference

Cc1cn([C@H]2C[C@H](N=[N+]=[N-])[C@@H](CO)O2)c(=O)[nH]c1=O [AZT, 3'-azido-3'-deoxythymidine, reference compound]
MIC [8]: 0.32 µM (≈ 0.0855 µg/mL) | RT: Mean DPM/ml on day 5 (3 day old cells) ([9]; 0.01 μM): 65,208 DPM/ml | RT: Mean DPM/ml on day 5 (3 day old cells) ([9]; 0.1 μM): 6,144 DPM/ml | RT: Mean DPM/ml on day 5 (3 day old cells) ([9]; 1 μM): 2,304 DPM/ml | inhibition at 0.01 µM [9, 23]: 89.8% | inhibition at 0.1 µM [9, 23]: 99.1% | inhibition at 1 µM [9, 23]: 99.7% | pEC50 [3]: 8.70 | RIA p24 (Dupont kit) ([10]; 0.01 μM): 4.39 ng/mL | RIA p24 (Dupont kit) ([10]; 0.1 μM): 0.51 ng/mL | RIA p24 (Dupont kit) ([10]; 1 μM): 0.18 ng/mL | inhibition at 0.01 µM [10, 24]: 81.8% | inhibition at 0.1 µM [10, 24]: 97.9% | inhibition at 1 µM [10, 24]: 99.3% | pEC50 [4]: 8.70 | Hct ([11]; Mean of group): 28.7% | Hgb ([11]; Mean of group): 9.2 g/dL | MCH ([11]; Mean of group): 21.4 pg | MCHC ([11]; Mean of group): 32.0 g/dL | MCV ([11]; Mean of group): 66.8 fL | PLT ([11]; Mean of group): 1.2 × 10^6 | RBC ([11]; Mean of group): 4.3 × 10^6 | RDW ([11]; Mean of group): 23.4% | WBC ([11]; Mean of group): 6.6 × 10^3 | Hct [11, 25]: 28.4% and 35.0% | Hgb [11, 25]: 9.1 g/dL and 11.0 g/dL | MCH [11, 25]: 22.1 pg and 21.2 pg | MCHC [11, 25]: 32.1 g/dL and 31.4 g/dL | MCV [11, 25]: 68.9 fL and 67.4 fL | PLT [11, 25]: 1.076 × 10^6 and 1.292 × 10^6 | RBC [11, 25]: 4.1 × 10^6 and 5.2 × 10^6 | RDW [11, 25]: 29.9% and 17.8% | WBC [11, 25]: 4.5 × 10^3 and 8.8 × 10^3 | Hct [11, 26]: 21.1% and 30.1% | Hgb [11, 26]: 6.9 g/dL and 9.6 g/dL | MCH [11, 26]: 20.5 pg and 21.6 pg | MCHC [11, 26]: 32.6 g/dL and 31.9 g/dL | MCV [11, 26]: 62.9 fL and 67.8 fL | PLT [11, 26]: 1.187 × 10^6 and 1.112 × 10^6 | RBC [11, 26]: 3.4 × 10^6 and 4.4 × 10^6 | RDW [11, 26]: 24.6% and 21.3% | WBC [11, 26]: 5.2 × 10^3 and 7.9 × 10^3 | pEC50 [12]: 6.47 | pEC50 [5]: 8.15 | Western blot p24 (band intensity) ([13]; 0.01 μM): 2+ | Western blot p41 (band intensity) ([13]; 0.01 μM): 1+ | Western blot p24 (band intensity) ([13]; 0.1 μM): 0 | Western blot p41 (band intensity) ([13]; 0.1 μM): 0 | Western blot p24 (band intensity) ([13]; 1 μM): 0 | Western blot p41 (band intensity) ([13]; 1 μM): 0 | activity against Friend Leukemia virus [14]: activity against Friend Leukemia virus | pEC50 [15]: 8.70 | effect of delayed treatment on replication of HIV-1 and SIV [6]: time of administration is critical to the effectiveness of the treatment | cytotoxicity / toxicity in words [16]: much greater toxicity | activity against HIV, in words [17]: somewhat more active than CS-87 | toxicity in a clinical setting [18]: exhibits toxicity | pEC50 [19]: 8.40

Nc1ccn([C@H]2CC[C@@H](CO)O2)c(=O)n1 [DDC, reference compound]
activity against sarcoma 180 cells [20]: inactive | inhibitory activity towards two particular enzymes isolated from L1210 cells [21]: only marginal inhibitory activity | activity against L1210 cells [22]: inactive

Nc1ccn([C@H]2CC[C@@H](CO)O2)c(=O)n1 [d2C (ddC), 2',3'-dideoxycytidine, reference compound]
MIC [8]: 0.47 µM (≈ 0.0993 µg/mL) | pEC50 [12]: 6.32 | pEC50 [15]: 7.96
